The values below come from paper PMC11885506, “Evaluation of a non-animal toolbox informed by adverse outcome pathways for human inhalation safety” (Frontiers in Toxicology, 2025).

Entries after “also recorded” stand apart in the source; their conditions may differ. Structures can show the parent of a compound that is named as a salt.

The subject of series [1] is NCI-292 and normal human bronchial epithelial cells. On the set-up: method as in Deshmukh et al., 2005. The note with it: ref Deshmukh et al., 2005; cited from earlier work.
In series [2] the test system is NCI-H292 cells. The note with it: 0.03 µM for 4 h; ref Deshmukh et al., 2005; cited from earlier work.
In series [3] the test system is human bronchial epithelial cells (BEAS-2B). The arrangement: method as in Sthijns et al., 2014. The note with it: 3-10 µM, 30-min exposure; ref Sthijns et al., 2014; cited from earlier work.
In series [4] the test system is MucilAir™-HF tissues. Briefly: Mucin-5AC (Muc5AC) immunohistochemistry, goblet cells, MucilAir-HF model. It counts as cell-based, human. Particulars: 30 min/day exposure, average ± standard deviation. As to the method:
(§1) Tissues were handled as recommended by manufacturer’s instruction.
The presence of goblet cells was assessed through immunohistochemistry analysis for mucin-5AC protein (Muc5AC) detection. IL-13 and cytomix were used as positive controls (see item 2.5.2 for additional details). On last day of experiment (day 12), cultures (n = 3 tissues/group) were rinsed in PBS and fixed by immersion in 4% formaldehyde for 20 min. Fixed tissues were embedded into paraffin, sectioned, and processed for staining on paraffin sections. The immunostaining of the sections was performed with the Benchmark automated platform (Ventana-Roche, Hoffmann-La Roche Ltd, Basel, Switzerland) and the Autostainer Link 48 (Agilent, Santa Clara, CA. United States) with the detection kit Ultraview DAB (DAB chromogeny, Hoffmann-La Roche Ltd). Sections were pre-treated using heat mediated antigen retrieval with sodium citrate buffer, pH 6, for 20 min. The section was then incubated with recombinant anti-mucin 5AC antibody (ab3649, Abcam) for 1 h at room temperature, followed by biotinylated secondary antibody (Dako) and HRP detection (HRP conjugated ABC system, Vector Laboratories), according to manufacturer’s instruction. The section was then counterstained with hematoxylin (Sigma-Aldrich) and mounted with DPX, a synthetic non-aqueous mounting medium for microscopy. Digital images of the slides were then acquired, and quantitative image analysis performed using Image Pro Plus 6.2 (Media Cybernetics) to quantify the goblet cells on a section. The whole images of stained sections were scanned, and an average 15 images/section were analysed. The results are the ratio between the mucin 5AC stained area and the total surface area of the epithelium on the section.

The test system of series [5] is EpiAlveolar™ tissues. Briefly: Cytokine and chemokine measurements (Luminex), EpiAlveolar model, Laboratory 1. It counts as cell-based, human. The note with it: for MinPoD: EpiAlveolar™ model Laboratory-1. From the text: (§2) EpiAlveolar™ system was obtained from MatTek Corporation (Ashland, MA, United States, cat. no. ALV-100-FT-MAC, ALV-100-FT-MAC-PE12). According to the supplier, the tissue systems were derived from primary human alveolar epithelial cells and primary pulmonary fibroblasts, both from a same healthy donor, and pulmonary endothelial cells from another healthy donor, and THP-1 cell line derived macrophages. These tissues were differentiated by the manufacturer prior to shipping to the testing facilities. […] TEER was measured and only systems with confirmed quality of the tight junction barrier (>300 Ω.cm^2) and with approved morphological inspection were used in the experiments.
(§3) Vehicle control groups were also tested in parallel. Except for Doxorubicin (which underwent a 6-day chemical exposure + 6-day without exposure), exposures were conducted daily, on 12 consecutive days with different concentrations, through aerosol, apical or basolateral liquid exposure methods (Table 2). […] Each of the insert holders of the instrument base module was filled with Hanks’ Balanced Salt solution (HBSS) or PBS prior to placing the tissue inserts. Then, each test item solution/suspension was placed into the nebulizer reservoir for aerosol material exposure. The nebulizer was activated until the material solution/suspension was consumed and discharged into the main exposure chamber and allowed to fully gravity deposit out of the Cloud 12 (determined using a QCM). After exposure, the tissues were placed back into their multi-well culture plates containing the same medium, a further aliquot of media was added apically (20 µL for Akemi, 75 µL for all others except LPS) and returned to incubator until next exposure. Media used during the 6- or 12-day experimental period was prepared without Supplement X by MatTek. In medium exposure, the apical or basolateral liquid of each tissue was removed and replaced with each test item medium solution/suspension and returned to the incubator until the next exposure. After the beginning of the exposure cycles, tissues were only re-fed with new culture medium every 3-4 days.
In Laboratory 1, basal media samples collected from the tissues were collected and stored at ≤ −60°C until analysis. For cytokine/chemokine measurements, 17-Plex, duplex and single-plex analyte detection panels were run on the samples using Human Luminex™ Multiplex Immunoassay kits (R&D Systems). The analytes quantified were TNF-α, IL-6, MMP-9, MMP-3, MMP-1, MMP-2, CXCL10, CCL2, IFN-γ, IL-1ra, CCL7, IL-1a, CCL26, CXCL9, VCAM-1, ICAM-1, and CXCL11 in a 17-plex assay; whereas IL-8 and Serpin E1 in a duplex assay and TGF-β1 in a single-plex assay.

The subject of series [6] is EpiAlveolar™ tissues. The experiment in a line: High-throughput transcriptomics (RNA-seq, PLIER latent variables), EpiAlveolar model, Laboratory 2. It counts as cell-based, human. Particulars: for MinPoD: Transcriptomics, biomarker 111.
Series [7] concerns EpiAlveolar™ tissues. Briefly: Cytokine and chemokine measurements (Luminex), EpiAlveolar model, Laboratory 2. Particulars: for MinPoD: EpiAlveolar™ model Laboratory-2. It counts as cell-based, human.
Description: as §2, §3
In Laboratory 2, apical culture media samples of the tissues were collected, stored at −80°C until shipment, in dry ice with temperature monitor control, to Unilever SERS, where the analyses were performed. Upon receipt, samples were again stored in the −80°C until the analysis using Human Luminex® Discovery Assay kits (R&D Systems). The same readouts investigated for MucilAir™-HF tissue samples were quantified in these samples.

The conditions of series [8]: cited from earlier work.
The subject of series [9] is EpiAlveolar™ model. The experiment in a line: Bioactivity exposure ratio (BER): lowest in vitro PoD of EpiAlveolar readouts / lower respiratory tract exposure estimate or Cmax. The note with it: Plasma. On the set-up: species or system human.
Description: (§4) Concentration and time-dependent changes in the bioactivity readout data were analyzed using a nonlinear state space model, based on the work of [Svensson and Schön (2017)]. […] All bioactivity readouts were included in the analysis (where available), i.e., measurements for tissue integrity loss (TEER) and functionality (MCC, CBF, and mucin secretion), cytokine/chemokine secretion, and the transcriptional LV values obtained using PLIER. The datasets were grouped so that a single state space model was used to capture all the responses (across time, concentration, and test material) for a single readout obtained within a particular study (laboratory/tissue model). Data were transformed to the log base 10 scale and normalized using z-scores, so that for a given readout Ytij from a laboratory/tissue model, the corresponding normalized value was given by y^tij=⁡log⁡10(Ytij)−μ)/σ . Here, the indexes i,j,t correspond to the different test materials, concentrations and timepoints, μ and σ are the sample mean and standard deviation of the control readout values obtained for the first timepoint. All measurement were then scaled so that the maximum median value across different replicates was one for all timepoints, readouts and test materials within a given laboratory/tissue model.
The model consists of state variables xti,j , response variables ytij and the concentrations of material c^i,j . The response variables yti,j represent the normalized (see below) readout values at timepoint t for material exposure i,j . The mean of the response variable is given by xti,j , so that yti,j∼xti,j+et , where et represents random fluctuations in the readout values, due to observational noise, which are taken to be normally distributed. Dynamical changes in state values are given by xti,j=fxt−1i,j,cti,j+vt . Here, fxt−1i,j,c^i,j is a non-linear function that represents interactions between different state variables and the perturbation caused by the test material at a given exposure at concentration c^i,j, and vt represents random fluctuations in state dynamics (which are also normally distributed). Following [Svensson and Schön (2017)], the nonlinear terms are based on an approximation to Gaussian processes, which are obtained using a basis function expansion-based approach. Inference of the model parameters was performed in the framework of Bayesian inference, wherein random draws of the posterior distribution were obtained using Sequential Monte Carlo (SMC), see [Svensson and Schön (2017)] and [Chopin and Papaspiliopoulos (2020)]. For each state space model representing a particular laboratory/readout dataset, SMC simulation was run for three chains at 5,000 iterations each, and first 1,000 iterations were discarded from the final posterior samples. The Rhat convergence diagnostic (Rhat < 1.1) was used to ensure the simulations had converged.
The state space model and posterior model parameter samples were then used to construct posterior predictive distributions of the response of each readout to a given test material for a given concentration and timepoint (see Figure 4). The posterior predictive distributions were used to estimate various statistics on the readout responses (median, 95% credible range etc.), PoDs, Concentration Dependency Scores (CDS) and two Effect Scores (increase and decrease). PoDs were defined as the concentration at which the mean response to a test material exceeded the 95% credible range of control for each timepoint (otherwise the mean response remains within the range of control). PoDs distribution for each timepoint, test material and readout, from which different statistical measures (e.g., the median, 95% credible range etc.) were calculated. The CDS was designed to provide confidence metric in whether an effect in the data was truly concentration dependent.
Series [10] has as its system EpiAlveolar™ tissues. Briefly: Histology and immunohistochemistry, EpiAlveolar model, Laboratory 2. Particulars: Laboratory 2, 12-day period.
Description: To evaluate the quality of EpiAlveolar™ tissues over the 12-day experimental period, histological and immunohistochemistry assessments for detection of pan-cytokeratin, vimentin, aquaporin 5, pro-surfactant C, CD68, caspase-3, and/or αSMA were performed by Laboratories 1 and 2.
Tissues were kept in 10% phosphate buffered formalin at 4°C for up to 48 h. Samples were then fixed in 70% ethanol and two strips of membrane were trimmed from each sample, processed, and paraffin-embedded to be cut at 5 µm thick sections and mounted to glass slides. The slides were then dewaxed in xylene, hydrated using graded industrial methylated spirit (70-100%) and stained with H&E for light microscope analysis.
For immunohistochemistry analysis, tissue sections-containing microscope slides were obtained and processed using a Discovery Ultra Staining System (Roche), according to manufacturer’s instructions, except for anti-CD68 staining that was manually performed. The slides were incubated at 60°C for 8 min and then deparaffinized at 69°C for 24 min. After that, slides were incubated with inhibitor CM or peroxidase blocking solution (for anti-CD68 staining) for 8 min at room temperature. The slides were then incubated at room temperature with the following primary monoclonal antibodies, following manufacturer’s instructions: anti-α smooth muscle actin (αSMA) at 1:500 (Leica Microsystems Ltd), anti-CD68 at 1:3000 for macrophages (11192-T24, Sino Biological), anti-pro-surfactant C protein at 1:1000 (AB3786, Sigma-Aldrich), anti-caspase-3 at 1:10000 (AB4051, Abcam), anti-aquaporin 5 (31661, Invitrogen), anti-pan-cytokeratin for epithelial cells (760-2595, Roche), and anti-vimentin for mesenchymal cells (790-2917, Roche). […]
A board-certified pathologist evaluated the changes (epithelial thinning, separation/detachment areas, necrosis, collagen, and presence of apoptotic cells, myofibroblasts, and type II pneumocytes) using a semi-quantitative scoring system (Table 2).
For series [11] the following is noted: human, therapeutic dose, infusion of 60 mg/m^2 for 40 min; ref Barpe et al. (2010); cited from earlier work.
Series [12] has as its system MucilAir™-HF tissues. Briefly: Cytokine and chemokine measurements (Luminex), MucilAir-HF model. It counts as cell-based, human. The note with it: for Cytokines/chemokines modulated (in words): MucilAir-HF; for MinPoD: MucilAir™-HF model, biomarker IL-1ra. Here is the method: as §1
Basolateral medium samples of the tissue cultures were collected and stored at −80°C until analysis. The following cytokines/chemokines were quantified using customized Human Luminex® Discovery Assay kits (R&D Systems): chemokine (C-C motif) ligand (CCL) 2, CCL7, CCL26, C-X-C motif chemokine ligand (CXCL) 10, CXCL11, intercellular adhesion molecule-1 (ICAM-1), IL-1α, IL-6, IL-8, matrix metalloproteinase (MMP)-1, MMP-2, MMP-3, MMP-7, MMP-9, osteopontin, interferon (IFN)-γ, IL-1 receptor antagonist (IL-1Ra), urokinase-type plasminogen activator receptor (uPAR), tumour necrosis factor (TNF)-α, urokinase (uPA), serpin E1, tissue inhibitor of metalloproteinase 1 (TIMP-1), and TGF-β1. Samples were measured in technical triplicates according to the manufacturer’s recommendation using a Luminex Bio-Plex® 200 RUO System ([…]).

Series [13] has as its system MucilAir™-HF tissues.
Description: (§5) The MucilAir™-HF system (EP11MD) and ready-to-use chemically-defined, serum-free culture medium (EP04AM) were obtained from Epithelix Sàrl (Geneva, Switzerland). Tissues were handled as recommended by manufacturer’s instruction. […] After differentiation for 42 up to 81 days at the air-liquid interface (ALI) under standard culture conditions (37°C ± 1°C in a humidified atmosphere of 5% ± 1% CO2 in air), tissues were washed 3 days before first exposure and each insert was inspected for beating cilia and mucus production. This washing step (one or twice with PBS) were performed to remove accumulated mucus and cell debris to minimize the risk of interference with the toxicity tests. Over 12-day experimental period, washing steps as well as media changes was performed every 2-3 days.
(§6) For toxicity testing performed over a 12-day experimental period, tissues were daily exposed to 3 different concentrations of each test material for 30 min or 6 h (for detailed information on each material see Table 1). […]
(§7) TEER measurements were performed daily after test item exposure to evaluate tissue barrier function. Tissues were washed, 200 µL of buffered saline solution was added to the apical compartment of MucilAir™-HF cultures, and resistance was measured using an EVOMX volt-ohmmeter with chopstick style probes (World Precision Instruments, Stevenage, UK). […]
The subject of series [14] is MucilAir™-HF tissues. The experiment in a line: TEER analysis of tissue barrier integrity, MucilAir-HF model. Particulars: Day 4, biomarker TEER.
Description: as §5, §6, §7
Series [15] deals with MucilAir™-HF model.
Description: as §4
The model consists of state variables xti,j , response variables ytij and the concentrations of material c^i,j . The response variables yti,j represent the normalized (see below) readout values at timepoint t for material exposure i,j . The mean of the response variable is given by xti,j , so that yti,j∼xti,j+et , where et represents random fluctuations in the readout values, due to observational noise, which are taken to be normally distributed. Dynamical changes in state values are given by xti,j=fxt−1i,j,cti,j+vt . […] For each state space model representing a particular laboratory/readout dataset, SMC simulation was run for three chains at 5,000 iterations each, and first 1,000 iterations were discarded from the final posterior samples. […]
Series [16] relates to MucilAir™-HF tissues. The source holds these as a separate data set.
Description: as §5
For toxicity testing performed over a 12-day experimental period, tissues were daily exposed to 3 different concentrations of each test material for 30 min or 6 h (for detailed information on each material see Table 1). […] Tissues were exposed by test materials via nebulization, liquid apical application, or liquid basal application. These differences in the exposure type were due to solubility of the test material, route of exposure (inhaled or systemic), or comparison with previous publications. […]
The subject of series [17] is Beas2B, HFL-1 and H292 cells. On the set-up: method as in Gerloff et al., 2017. Particulars: 10 ng/mL for 24h; ref Gerloff et al., 2017; cited from earlier work.
Series [18] has as its system human airway smooth muscle cells. The arrangement: method as in McKay et al., 2000. The note with it: 1-500 U/mL for 24h; ref McKay et al., 2000; cited from earlier work.
[19] abbreviates: day 12, High 1 concentration (third of the tested concentrations).
The mark [20] stands for this setting: day 12, Low concentration (first of the tested concentrations).
Where [21] appears, read: day 12, Medium concentration (second of the tested concentrations).

Turning to `C=CC=O` [Acrolein], in [1], the “MMP9 mRNA expression” value is “increase of MMP9 mRNA expression”. The “MUC5AC mRNA expression” value in series [2] is listed as “MUC5AC mRNA expression increase”. In series [3], the “Cytotoxicity (LDH leakage)” value is given as “concentration-dependent cytotoxicity through LDH leakage increase”. The “% of Muc5AC area” value is on record as 5.21 ± 2.16% in series [4] (setting [19]), 3.66 ± 1.21% in series [4] (setting [20]) and 7.40 ± 1.45% in [4] (setting [21]).
On to `COc1cccc2c1C(=O)c1c(O)c3c(c(O)c1C2=O)C[C@@](O)(C(=O)CO)C[C@@H]3O[C@H]1C[C@H](N)[C@H](O)[C@H](C)O1` [Doxorubicin, Doxorubicin hydrochloride], for which the “Cytokines/chemokines modulated (in words)” value in [5] (EpiAlveolar, Laboratory 1) was “tendency towards downregulation of the inflammatory and degradation of extracellular matrix/fibrosis responses; also recorded: dual effect with the anti-inflammatory IL-1ra response”; in series [7] (EpiAlveolar, Laboratory 2) it was “tendency towards downregulation of the inflammatory and degradation of extracellular matrix/fibrosis responses”. For the same molecule, the MinPoD in series [5] (Day 4, biomarker MMP-3) stood at 0.1566 μg/cm2; in series [5] (Day 8, biomarker MMP-3), 0.1333 μg/cm2; in series [5] (Day 12, biomarker MMP-9), 0.1298 μg/cm2; in series [6] (Day 1) it was 0.002879 μg/cm2; in [6] (Day 4) it was 0.00076 μg/cm2; in [6] (Day 8), 0.0007958 μg/cm2. Besides, the MinPoD stood at 0.000701 μg/cm2 in series [6] (Day 12); 0.2843 μg/cm2 in series [7] (Day 1, biomarker CCL2); 0.1115 μg/cm2 in series [7] (Day 4, biomarker CCL2); 0.07617 μg/cm2 in series [7] (Day 8, biomarker CCL7); 0.06864 μg/cm2 in [7] (Day 12, biomarker CCL7). Moreover, the “Median change, 171 - INTRAFLAGELLAR_TRANSPORT” value in series [6] came to 0.04. Further, the Risk result in [8] (Scenario Plasma) was “High”. Besides, the Risk classification result in [8] (per benchmark chemical-exposure scenario (product and exposure scenario of the same line), based on historical safety decisions, ref References column of Table 3) is “High”. Besides, the BER_min in series [9] (Day 1, EpiAlveolar™ model Laboratory-2) is reported as 0.2187; in [9] (Day 1, Transcriptomics), 0.002215; in series [9] (Day 4, EpiAlveolar™ model Laboratory-1), 0.1204; in series [9] (Day 4, EpiAlveolar™ model Laboratory-2) it was 0.08579; in series [9] (Day 4, Transcriptomics) it was 0.0005847; in [9] (Day 8, EpiAlveolar™ model Laboratory-1), 0.1025. In addition, the BER_min is 0.05859 in series [9] (Day 8, EpiAlveolar™ model Laboratory-2); 0.0006121 in series [9] (Day 8, Transcriptomics); 0.09985 in series [9] (Day 12, EpiAlveolar™ model Laboratory-1); 0.0528 in series [9] (Day 12, EpiAlveolar™ model Laboratory-2); 0.0005393 in series [9] (Day 12, Transcriptomics). Besides, the “Histological changes compared to vehicle and control groups (in words)” value in series [10] is “minor increase in epithelial thinning and a minor increase in the numbers of degenerate cells were observed by day 4”. In addition, the Plasma conc result in series [11] is reported as “Plasma conc 1.3 μM”.
Turning to Benzalkonium chloride [BAC], the “Cytokines/chemokines modulated (in words)” value in [12] (30 min/day exposure) was “increase in CCL7, IL-1α and IL-6; also recorded: downregulation of MMP-7 only”; in series [12] (exposure time/day not given) it was “IL-1ra showed upregulated levels”. For the same molecule, the MinPoD in series [12] (Day 8) is reported as 1.822 μg/cm2; in [12] (Day 12) it was 1.409 μg/cm2; in series [14], 2.6 μg/cm2. In series [13], the “Tissue barrier integrity (TEER) change (in words)” value is recorded as “trigger changes in tissue barrier integrity”. The “% of Muc5AC area” value in series [4] (setting [19]) is 3.98 ± 1.12%; in [4] (setting [20]), 5.75 ± 0.93%; in series [4] (setting [21]), 5.37 ± 1.06%.
In series [15], “Carboxymethylcellulose sodium salt [CMC]” came in with a BER_min of 2.393. Moreover, the “MCC change (in words)” value in series [16] is recorded as “concentration-dependent reduction in the MCC only on day 1”.
For the molecule Recombinant human TNF-α (carrier-free), in series [12] (30 min/day exposure), the “Cytokines/chemokines modulated (in words)” value was “upregulation of CCL2 and osteopontin”. Further, the IL-8 protein levels entry in series [17] is on record as “increased IL-8 protein levels”. In addition, in series [18], the “IL-6 production protein and mRNA transcript levels” value is “significant increase of IL-6 production protein and mRNA transcript levels”. In addition, the “% of Muc5AC area” value in series [4] (setting [19]) stood at 5.21 ± 3.28%; in series [4] (setting [20]) it was 8.18 ± 1.54%; in series [4] (setting [21]), 9.15 ± 6.07%.
